Measured values: ChEMBL document CHEMBL1833922, “A compound isolated from Schisandra chinensis induces apoptosis” (2011)
Activity calls are given as the source filed them. The rule behind the calls is not given here.

Columns and labels:
HCT-116 [1] = experiment: Induction of apoptosis in human HCT116 cells assessed as condensed chromatin at 10 uM after 48 hrs by fluorescence microscopy method; assay type: functional, cell-based
HCT-116 [2] = experiment: Induction of apoptosis in human HCT116 cells assessed as accumulation of cleaved caspase-7 at 10 uM after 48 hrs by Western blot analysis; assay type: functional, cell-based
HCT-116 [3] = experiment: Antiproliferative activity against human HCT116 cells assessed as cell growth inhibition at 10 to 40 uM by WST-8 assay; assay type: functional, cell-based; details: TDE = time-dependent effect
HCT-116 [4] = experiment: Induction of apoptosis in human HCT116 cells assessed as fragmented nuclei at 10 uM after 48 hrs by fluorescence microscopy method; assay type: functional, cell-based
HCT-116 [5] = experiment: Anticlonogenic activity against human HCT116 cells at 2 uM after 7 days using crystal violet staining; assay type: functional
HCT-116 [6] = experiment: Induction of apoptosis in human HCT116 cells assessed as increase in cleaved PARP level at 10 uM by Western blot analysis; assay type: functional, cell-based; details: TDE = time-dependent effect
HCT-116 [7] = experiment: Antiproliferative activity against human HCT116 cells assessed as cell growth inhibition after 12 to 48 hrs by WST-8 assay; assay type: functional, cell-based
HCT-116 [8] = experiment: Induction of apoptosis in human HCT116 cells assessed as shrunken nuclei at 10 uM after 48 hrs by fluorescence microscopy method; assay type: functional, cell-based

SMILES	Activity (HCT-116 [1])	Activity (HCT-116 [2])	growth inhibition (GI) (HCT-116 [3])	Activity (HCT-116 [4])	Activity (HCT-116 [5])	Activity (HCT-116 [6])	growth inhibition (GI) (HCT-116 [7])	Activity (HCT-116 [8])
COc1cc2c(c(OC)c1OC)-c1c(cc3c(c1OC)OCO3)C[C@@H](C)[C@](C)(O)C2	Active	Active	tde	Active	50%	tde	Dose-dependent effect	Active
COc1cc2c(c(OC)c1OC)-c1c(cc3c(c1OC)OCO3)C[C@H](C)[C@](C)(O)C2		Active						
